Measurements as given in patent publication US20090163490A1, “Pyrrolopyrimidine Derivatives Used As HSP90 Inhibitors” (VERNALIS (R&D) LTD., priority 2006, published 2009).

molecular target: T1, human full-length HSP90 (Homo sapiens, UniProt P08238); test: Fluorescence polarization (FP) binding assay; conditions: competitive displacement of fluorescein-labelled probe from human full-length HSP90; activity range; read-out: ACTIVITY* (Activity in the FP binding assay)
T1 construct: E. coli expressed human full-length HSP90 protein, purified >95%; made in house; host or cells: E. coli
Text: Fluorescence Polarization Assay
Fluorescence polarization {also known as fluorescence anisotropy} measures the rotation of a fluorescing species in solution, where the larger molecule the more polarized the fluorescence emission. When the fluorophore is excited with polarized light, the emitted light is also polarized. The molecular size is proportional to the polarization of the fluorescence emission.
The fluoroscein-labelled probe—
binds to HSP90 {full-length human, full-length yeast or N-terminal domain HSP90} and the anisotropy {rotation of the probe:protein complex} is measured.
Test compound is added to the assay plate, left to equilibrate and the anisotropy measured again. Any change in anisotropy is due to competitive binding of compound to HSP90, thereby releasing probe.
Stored at room temperature. • 3) BSA (bovine serum albumen) 10 mg/ml (New England Biolabs # B9001S) • 4) 20 mM probe in 100% DMSO stock concentration. Stored in the dark at RT. Working concentration is 200 nM diluted in AR water and stored at 4° C.
• 1) Add 100 μl×buffer to wells 1A and 12A(=FP BLNK) • 2) Prepare assay mix—all reagents are kept on ice with a lid on the bucket as the probe is light-sensitive.
• 3) Aliquot 100 μl assay mix to all other wells • 4) Seal plate and leave in dark at room temp for 20 minutes to equilibrate
This gives 2.5 mM {50×} stock cpd−assuming cpds 20 mM. • 4) Repeat for wells A2 to A10. Control in columns 11 and 12. • 5) Transfer 5 μl from row A to row B—not column 12. Mix well. • 6) Transfer 5 μl from row B to row C. […] Add 2 μl of 100 mM standard cpd to wells B12-H12 {is positive control} • 13) The Z′ factor is calculated from zero controls and positive wells.

T1 sequence (P08238 whole entry): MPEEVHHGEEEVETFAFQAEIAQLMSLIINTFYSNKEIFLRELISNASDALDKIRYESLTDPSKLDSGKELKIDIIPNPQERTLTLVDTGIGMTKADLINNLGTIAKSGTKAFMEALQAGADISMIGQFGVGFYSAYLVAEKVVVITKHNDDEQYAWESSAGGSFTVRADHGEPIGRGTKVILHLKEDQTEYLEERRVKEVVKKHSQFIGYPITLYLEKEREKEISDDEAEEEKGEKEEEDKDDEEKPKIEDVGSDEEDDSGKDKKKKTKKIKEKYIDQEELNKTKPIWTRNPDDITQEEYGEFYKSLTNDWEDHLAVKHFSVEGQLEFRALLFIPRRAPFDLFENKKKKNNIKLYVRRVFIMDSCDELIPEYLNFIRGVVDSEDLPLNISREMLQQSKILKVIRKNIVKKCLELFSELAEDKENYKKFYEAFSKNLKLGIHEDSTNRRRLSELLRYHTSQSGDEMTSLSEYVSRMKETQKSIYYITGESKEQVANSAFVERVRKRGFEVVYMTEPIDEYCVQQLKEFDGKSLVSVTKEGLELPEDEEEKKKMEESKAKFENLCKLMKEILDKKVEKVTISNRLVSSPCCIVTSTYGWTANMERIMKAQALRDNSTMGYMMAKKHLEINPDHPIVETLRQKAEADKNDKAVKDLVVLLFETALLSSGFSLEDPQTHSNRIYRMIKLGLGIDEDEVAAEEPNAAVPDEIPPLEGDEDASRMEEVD

IC50	SMILES
< 500 nM	COc1cc(Cl)c(-c2nc(SC)nc3[nH]cc(C#N)c23)cc1OCCN1CCC(F)(F)C1 [Example 74]
< 500 nM	CCN(CC)CCOc1cc(-c2nc(SC(C)C)nc3[nH]cc(C#N)c23)c(Cl)cc1OC [Example 68]
< 500 nM	COc1cc(Cl)c(-c2nc(SC(C)CN3CCC(F)(F)C3)nc3[nH]cc(C#N)c23)cc1OC (stereo not drawn) [Example 83]
500 to 10000 nM	COc1cc(Cl)c(-c2nc(C(C)C)nc3[nH]cc(C#N)c23)cc1OC [Example 70]
500 to 10000 nM	CCN(CC)CCOc1cc(-c2nc(CC(C)C)nc3[nH]cc(C#N)c23)c(Cl)cc1OC [Example 82]
500 to 10000 nM	COc1cc(-c2nc(SC)nc3[nH]cc(C#N)c23)ccc1C#N [Example 55]
< 500 nM	COc1cc(Cl)c(-c2nc(OCCCN3CCOCC3)nc3[nH]cc(C#N)c23)cc1OC [Example 60]
< 500 nM	COc1cc(Cl)c(-c2nc(Sc3nccs3)nc3[nH]cc(C#N)c23)cc1OC [Example 85]
< 500 nM	CCN(CC)CCOc1cc(-c2nc(OC3CCCC3)nc3[nH]cc(C#N)c23)c(Cl)cc1OC [Example 80]
500 to 10000 nM	COc1cc(Cl)c(-c2nc(Sc3nccn3C)nc3[nH]cc(C#N)c23)cc1OC [Example 91]
< 500 nM	CSc1nc(-c2cc3c(cc2Cl)OCO3)c2c(C#N)c[nH]c2n1 [Example 77]
500 to 10000 nM	CCN(CC)CCOc1nc(-c2ccc(OC)c(OC)c2)c2c(C#N)c[nH]c2n1 [Example 53]
500 to 10000 nM	N#Cc1c[nH]c2nc(OCCN3CCC(F)(F)CC3)nc(-c3cc(OCc4ccccc4)c(Cl)cc3Cl)c12 [Example 52]
< 500 nM	CCN(CC)CCCOc1nc(-c2cc(OC)c(OC)cc2Cl)c2c(C#N)c[nH]c2n1 [Example 59]
500 to 10000 nM	CCN(CC)CCNc1nc(-c2cc(OC)c(OC)cc2Cl)c2c(C#N)c[nH]c2n1 [Example 69]
< 500 nM	COc1cc(-c2nc(OCCN3CCCC(F)(F)C3)nc3[nH]cc(C#N)c23)c(Cl)cc1C#N [Example 62]
< 500 nM	COc1cc(Cl)c(-c2nc(OCCN3CC[C@H](F)C3)nc3[nH]cc(C#N)c23)cc1OC [Example 58]
< 500 nM	COc1cc(Cl)c(-c2nc(SC)nc3[nH]cc(C#N)c23)cc1OCCN1CCCC(F)(F)C1 [Example 66]
< 500 nM	CCN(CC)CCOc1cc(-c2nc(SC3CCCC3)nc3[nH]cc(C#N)c23)c(Cl)cc1OC [Example 81]
< 500 nM	COc1cc(Cl)c(-c2nc(SC(C)C(=O)O)nc3[nH]cc(C#N)c23)cc1OCCN1CCC(F)(F)C1 (stereo not drawn) [Example 89]
< 500 nM	COc1cc(Cl)c(-c2nc(OCCCN3CCCC3=O)nc3[nH]cc(C#N)c23)cc1OC [Example 57]
< 500 nM	COc1cc(Cl)c(-c2nc(SC(C)(C)CN3CCC(F)(F)C3)nc3[nH]cc(C#N)c23)cc1OC [Example 90]
500 to 10000 nM	CSc1nc(-c2cc(OCc3ccccc3)c(Cl)cc2Cl)c2c(C#N)c[nH]c2n1 [Example 54]

same assay, conditions: competitive displacement of fluorescein-labelled probe from human full-length HSP90; activity range; read-out: activity in the fluorescence polarization assay

IC50	SMILES
< 500 nM	COc1cc(Cl)c(-c2nc(OCCN3CC[C@H](F)C3)nc3[nH]cc(C#N)c23)cc1OC [Example 35]
500 to 10000 nM	CSc1nc(-c2ccc(C)cc2C)c2c(C)c[nH]c2n1 [Example 6, 4-(2,4-dimethyl-phenyl)-5-methyl-2-methylsulfanyl-7H-pyrrolo[2,3-d]pyrimidine]
500 to 10000 nM	CNc1nc(-c2ccc(F)cc2C)c2c(C#N)c[nH]c2n1 [Example 17, 4-(4-Fluoro-2-methyl-phenyl)-2-methylamino-7H-pyrrolo[2,3-d]pyrimidine-5-carbonitrile]
< 500 nM	Cc1cc(F)ccc1-c1nc(SCCN2CCOCC2)nc2[nH]cc(C#N)c12 [Example 21, 4-(4-Fluoro-2-methyl-phenyl)-2-(2-morpholin-4-yl-ethylsulfanyl)-7H-pyrrolo[2,3-d]pyrimidine-5-carbonitrile]
< 500 nM	CCN(CC)CCSc1nc(-c2cc(OC)c(OC)cc2Cl)c2c(C#N)c[nH]c2n1 [Example 30, 4-(2-Chloro-4,5-dimethoxy-phenyl)-2-(2-diethylamino-ethylsulfanyl)-7H-pyrrolo[2,3-d]pyrimidine-5-carbonitrile]
< 500 nM	COc1cc(Cl)c(-c2nc(SC)nc3[nH]cc(C#N)c23)cc1OC [Example 29, 4-(2-Chloro-4,5-dimethoxy-phenyl)-2-methylsulfanyl-7H-pyrrolo[2,3-d]pyrimidine-5-carbonitrile]
500 to 10000 nM	Cc1ccc(-c2ncnc3[nH]cc(C#N)c23)c(C)c1 [Example 9, 4-(2,4-dimethyl-phenyl)-7H-pyrrolo[2,3-d]pyrimidine-5-carbonitrile]
< 500 nM	COc1cc(-c2nc(SC)nc3[nH]cc(C#N)c23)c(Cl)cc1Cl [Example 22, 4-(2,4-Dichloro-5-methoxy-phenyl)-2-methylsulfanyl-7H-pyrrolo[2,3-d]pyrimidine-5-carbonitrile]
< 500 nM	COc1cc(Cl)c(-c2nc(SCC(=O)O)nc3[nH]cc(C#N)c23)cc1OCCN1CCC(F)(F)C1 [Example 50, (4-{2-Chloro-5-[2-(3,3-difluoro-pyrrolidin-1-yl)-ethoxy]-4-methoxy-phenyl}-5-cyano-7H-pyrrolo[2,3-d]pyrimidin-2-ylsulfanyl)-acetic Acid]
500 to 10000 nM	COc1cc(Cl)c(-c2nc([S+](C)[O-])nc3[nH]cc(C#N)c23)cc1OC (stereo not drawn) [Example 47]
500 to 10000 nM	CSc1nc(-c2ccc(C)cc2C)c2c(C(F)(F)F)c[nH]c2n1 [Example 10, 4-(2,4-Dimethyl-phenyl)-2-methylsulfanyl-5-trifluoromethyl-7H-pyrrolo[2,3-d]pyrimidine]
< 500 nM	CSc1nc(-c2cc(OCCN3CCCC3)c(Cl)cc2Cl)c2c(C#N)c[nH]c2n1 [Example 26, 4-[2,4-Dichloro-5-(2-pyrrolidin-1-yl-ethoxy)-phenyl]-2-methylsulfanyl-7H-pyrrolo[2,3-d]pyrimidine-5-carbonitrile]
> 10000 nM	Cc1ccc(-c2ncnc3[nH]cc(C(N)=O)c23)c(C)c1 [Example 39, 4-(2,4-Dimethyl-phenyl)-7H-pyrrolo[2,3-d]pyrimidine-5-carboxylic Acid Amide]
> 10000 nM	CSc1nc(-c2ccc(F)cc2C)c2c(C(N)=O)c[nH]c2n1 [Example 40, 4-(4-Fluoro-2-methyl-phenyl)-2-methylsulfanyl-7H-pyrrolo[2,3-d]pyrimidine-5-carboxylic Acid Amide]
500 to 10000 nM	COc1nc(-c2ccc(F)cc2C)c2c(C#N)c[nH]c2n1 [Example 12, 4-(4-Fluoro-2-methyl-phenyl)-2-methoxy-7H-pyrrolo[2,3-d]pyrimidine-5-carbonitrile]
> 10000 nM	Cc1cc(F)ccc1-c1nc(N2CCN(C)CC2)nc2[nH]cc(C#N)c12 [Example 16, 4-(4-Fluoro-2-methyl-phenyl)-2-(4-methyl-piperazin-1-yl)-7H-pyrrolo[2,3-d]pyrimidine-5-carbonitrile]
500 to 10000 nM	CCN(CC)CCOc1cccc(-c2nc(SC)nc3[nH]cc(C#N)c23)c1 [Example 7]
< 500 nM	COc1cc(Cl)c(-c2nc(OCCN3CCC(F)(F)C3)nc3[nH]cc(C#N)c23)cc1OC [Example 36]
500 to 10000 nM	COc1ccc(-c2nc(OCCN3CCC(F)(F)C3)nc3[nH]cc(C#N)c23)cc1OC [Example 33, 2-[2-(3,3-Difluoro-pyrrolidin-1-yl)-ethoxy]-4-(3,4-dimethoxy-phenyl)-7H-pyrrolo[2,3-d]pyrimidine-5-carbonitrile]
< 500 nM	CSc1nc(-c2ccc(Cl)cc2Cl)c2c(C#N)c[nH]c2n1 [Example 41, 4-(Dichloro-phenyl)-2-methylsulfanyl-7H-pyrrolo[2,3-d]pyrimidine-5-carbonitrile]
< 500 nM	CSc1nc(-c2ccc(C#N)cc2)c2c(C#N)c[nH]c2n1 [Example 3, 4-(4-cyano-phenyl)-2-methylsulfanyl-7H-pyrrolo[2,3-d]pyrimidine-5-carbonitrile]
< 500 nM	CCN(CC)CCSc1nc(-c2cc(OC)c(Cl)cc2Cl)c2c(C#N)c[nH]c2n1 [Example 23, 4-(2,4-Dichloro-5-methoxy-phenyl)-2-(2-diethylamino-ethylsulfanyl)-7H-pyrrolo[2,3-d]pyrimidine-5-carbonitrile]
< 500 nM	COc1ccc(-c2nc(SC)nc3[nH]cc(C#N)c23)cc1OC [Example 44, 4-(Dimethoxy-phenyl)-2-methylsulfanyl-7H-pyrrolo[2,3-d]pyrimidine-5-carbonitrile]
> 10000 nM	CSc1nc(-c2ccc(C)cc2C)c2c(C3CC3)c[nH]c2n1 [Example 11, 5-Cyclopropyl-4-(2,4-dimethyl-phenyl)-2-methylsulfanyl-7H-pyrrolo[2,3-d]pyrimidine]
500 to 10000 nM	CSc1nc(C(=O)N2Cc3ccccc3C2)c2c(C#N)c[nH]c2n1 [Example 93, 4-(1,3-Dihydro-isoindole-2-carbonyl)-2-methylsulfanyl-7H-pyrrolo[2,3-d]pyrimidine-5-carbonitrile]
